Data as given in patent publication US9872875B2, “Component and method for treating viral disease” (Institut Pasteur of Shanghai, Chinese Academy of Sciences, priority 2012, dated 2018).
Where a name gives a salt, the structure may show the parent alone. Read-outs that look alike come from different tables or passages of the source. Ends that are not written are not given here.

Tests used:
[1] = tested on: EV71; assay: Effects of other antagonists and agonists on EV71 (Table 9); type: cell-based, Enterovirus 71; parameters: key: “NO” indicates there is negative
[2] = molecular target: T1, P2X7 receptor (Homo sapiens, UniProt Q99572); details: cited from earlier work
T1 sequence (Q99572 1-595): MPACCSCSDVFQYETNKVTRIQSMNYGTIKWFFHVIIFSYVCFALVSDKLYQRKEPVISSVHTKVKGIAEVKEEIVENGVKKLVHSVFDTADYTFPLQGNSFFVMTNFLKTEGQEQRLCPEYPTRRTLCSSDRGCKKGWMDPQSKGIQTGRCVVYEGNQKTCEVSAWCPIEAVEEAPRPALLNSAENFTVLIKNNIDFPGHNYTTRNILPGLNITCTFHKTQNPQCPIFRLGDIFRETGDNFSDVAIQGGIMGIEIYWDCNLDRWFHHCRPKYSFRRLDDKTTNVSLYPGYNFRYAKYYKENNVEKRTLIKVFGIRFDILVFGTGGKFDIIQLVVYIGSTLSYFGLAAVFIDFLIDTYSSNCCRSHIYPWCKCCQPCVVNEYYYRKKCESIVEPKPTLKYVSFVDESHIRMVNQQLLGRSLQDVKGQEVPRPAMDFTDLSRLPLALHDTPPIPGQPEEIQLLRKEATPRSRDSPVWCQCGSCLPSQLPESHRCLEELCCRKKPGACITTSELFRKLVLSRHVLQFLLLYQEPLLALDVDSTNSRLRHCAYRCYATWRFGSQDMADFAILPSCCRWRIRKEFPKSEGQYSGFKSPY

[3] = molecular target: T2, P2X1 receptor (Homo sapiens, UniProt P51575); details: cited from earlier work
T2 sequence (P51575 1-399): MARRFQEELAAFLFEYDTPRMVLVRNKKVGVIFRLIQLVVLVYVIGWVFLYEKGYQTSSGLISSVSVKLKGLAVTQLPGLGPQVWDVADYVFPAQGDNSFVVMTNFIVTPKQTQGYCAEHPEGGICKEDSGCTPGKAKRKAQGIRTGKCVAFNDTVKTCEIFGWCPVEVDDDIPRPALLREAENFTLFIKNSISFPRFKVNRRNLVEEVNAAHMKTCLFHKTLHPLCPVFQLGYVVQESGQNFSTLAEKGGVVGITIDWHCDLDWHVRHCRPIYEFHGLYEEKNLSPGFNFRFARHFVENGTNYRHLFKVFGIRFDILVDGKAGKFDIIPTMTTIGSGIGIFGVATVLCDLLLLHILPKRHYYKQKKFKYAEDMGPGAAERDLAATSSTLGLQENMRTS

[4] = molecular target: T3, P2X2 receptor (Homo sapiens, UniProt Q9UBL9); details: cited from earlier work
T3 sequence (Q9UBL9 1-471): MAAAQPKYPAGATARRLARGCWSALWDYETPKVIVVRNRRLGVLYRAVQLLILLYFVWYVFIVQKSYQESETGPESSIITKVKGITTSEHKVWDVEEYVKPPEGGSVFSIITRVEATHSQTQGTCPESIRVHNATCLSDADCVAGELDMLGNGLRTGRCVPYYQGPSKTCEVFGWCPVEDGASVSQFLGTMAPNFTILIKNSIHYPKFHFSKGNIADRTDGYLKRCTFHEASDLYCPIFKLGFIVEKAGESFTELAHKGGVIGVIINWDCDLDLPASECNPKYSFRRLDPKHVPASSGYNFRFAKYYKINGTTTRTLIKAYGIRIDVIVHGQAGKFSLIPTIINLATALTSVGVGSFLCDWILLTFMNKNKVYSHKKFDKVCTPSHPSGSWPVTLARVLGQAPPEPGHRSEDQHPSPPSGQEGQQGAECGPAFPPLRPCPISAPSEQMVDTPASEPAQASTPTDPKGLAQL

[5] = tested on: EV71; assay: Inhibition of EV71 replication in RD cells at 0.1, 1, 10 and 100 μM (CPE, crystal violet); type: cell-based, Enterovirus 71; details: for Inhibition of EV71 replication: Table 8, antagonists
Method: Inhibitory effect of each P2X receptor antagonists and agonists on EV71 replication was measured at 0.1, 1, 10, and 100 μM. Specific procedures refer to “1” of Example 1. after infection, however, cells need to be incubated for 3˜4 days, stained with crystal violet, and observed under optical microscope to determine whether or not CPE (cytopathic effect) was present. In addition, the effect of compounds at each concentration on cytotoxicity to RD cells was determined. After culturing RD cells in various concentrations of compounds for 3˜4 days, stained with crystal violet, and observed under optical microscope to observe whether or not cell layer was damaged. Compounds capable of protecting cells from infection without damage of healthy cell layer can inhibit EV71 replication in RD cells.

[6] = molecular target: T4, P2X3 receptor (Homo sapiens, UniProt P56373); details: cited from earlier work
T4 sequence (P56373 1-397): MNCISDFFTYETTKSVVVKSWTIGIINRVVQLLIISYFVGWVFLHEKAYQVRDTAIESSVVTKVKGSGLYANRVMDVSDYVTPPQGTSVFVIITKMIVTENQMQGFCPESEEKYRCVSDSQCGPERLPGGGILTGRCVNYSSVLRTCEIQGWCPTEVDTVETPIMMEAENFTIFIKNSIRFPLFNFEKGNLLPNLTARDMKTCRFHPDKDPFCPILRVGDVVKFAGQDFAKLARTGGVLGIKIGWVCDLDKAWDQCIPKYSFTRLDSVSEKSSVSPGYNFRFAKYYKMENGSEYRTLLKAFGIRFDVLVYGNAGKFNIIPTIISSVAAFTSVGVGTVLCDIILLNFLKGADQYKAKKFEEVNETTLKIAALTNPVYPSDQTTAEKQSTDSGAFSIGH

| Molecule | EV71 Log10 reduction [1] | P2X receptors 7 ([2]; Table 9, antagonists) | also measured |
| --- | --- | --- | --- |
| Nc1ncnc2c1ncn2[C@@H]1O[C@H](COP(=O)(O)O)C(O)C1OP(=O)(O)O (stereo partly drawn) [2′,5′-ADP] | NO | – | – |
| O=C1CN=C(c2cccc(Br)c2)c2oc3ccccc3c2N1 [5-BDBD] | NO | – | – |
| Clc1cccc(-c2nnnn2Cc2cccnc2)c1Cl [A 438079] | NO | ✓ ✓ (✓ ✓ activating concentration 10 nM-300 nM) | – |
| COc1ccc(CC(=O)NC(N=C(NC#N)Nc2cccc3ncccc23)C(C)(C)C)cc1OC (stereo not drawn) [A 740003] | NO | ✓ ✓ (✓ ✓ activating concentration 10 nM-300 nM) | – |
| Clc1cccc(-n2nnnc2NCc2ccccc2Oc2ccccn2)c1Cl [A 839977] | NO | ✓ ✓ (✓ ✓ activating concentration 10 nM-300 nM) | – |
| O=C(O)c1cc(C(=O)O)c(C(=O)N(Cc2cccc(Oc3ccccc3)c2)[C@H]2CCCc3ccccc32)cc1C(=O)O [A-317491] | NO | – | – |
| COc1cc(C(C)C)c(Oc2cnc(N)nc2N)cc1I [AF353] | NO | – | – |
| O=C(CC12CC3CC(CC(C3)C1)C2)Nc1cccc2nc(NCCNCCO)ccc12 [AZ 10606120] | NO | – | – |
| O=C1CSC(=O)N1C(CCc1ccncc1)COc1ccc(-c2cccc([N+](=O)[O-])c2)cc1 (stereo not drawn) [AZ 11645373] | NO | ✓ ✓ (✓ ✓ activating concentration 10 nM-300 nM) | – |
| CCOc1ccc(Nc2ccc(/C(=C3C=C/C(=[N+](/CC)Cc4cccc(S(=O)(=O)[O-])c4)C=C/3C)c3ccc(N(CC)Cc4cccc(S(=O)(=O)[O-])c4)cc3C)cc2)cc1.[Na+] [BBG] | NO | ✓ ✓ ✓ (✓ ✓ ✓ activating concentration <10 nM) | P2X receptors 1 ([3]; Table 9, antagonists): ✓ (✓ activating concentration >300 nM); P2X receptors 2 ([4]; Table 9, antagonists): ✓ (✓ activating concentration >300 nM) |
| Cc1cc(-c2ccc(N=Nc3ccc4c(S(=O)(=O)[O-])cc(S(=O)(=O)[O-])c(N)c4c3O)c(C)c2)ccc1N=Nc1ccc2c(S(=O)(=O)[O-])cc(S(=O)(=O)[O-])c(N)c2c1O.[Na+].[Na+].[Na+].[Na+] [Evans Blue] | – | – | inhibition of EV71 replication (statement in words) [5]: can also inhibit EV71 replication |
| Cc1ccc(CN2CCNCC2)cc1NC(=O)CNc1ccc(F)c(F)c1 [GW 791343] | NO | – | P2X receptors 7 ([2]; Table 9, modulator, no key printed for this class): ✓ ✓ |
| CN([C@@H](Cc1ccc(OS(=O)(=O)c2cccc3cnccc23)cc1)C(=O)N1CCN(c2ccccc2)CC1)S(=O)(=O)c1cccc2cnccc12 [KN-62] | NO | ✓ ✓ (✓ ✓ activating concentration 10 nM-300 nM) | – |
| Cc1nc(N=Nc2ccc(C(=O)O)cc2)c(COP(=O)(O)O)c(C=O)c1O [MRS 2159] | NO | – | P2X receptors 1 ([3]; Table 9, antagonists): ✓ ✓ (✓ ✓ activating concentration 10 nM-300 nM) |
| O=C(Nc1cccc(C(=O)Nc2ccc(S(=O)(=O)O)c3cc(S(=O)(=O)O)cc(S(=O)(=O)O)c23)c1)Nc1cccc(C(=O)Nc2ccc(S(=O)(=O)O)c3cc(S(=O)(=O)O)cc(S(=O)(=O)O)c23)c1 [NF023, 8,8′-[carbonylbis(imino-3,1-phenylenecarbonylimino)]bis-1,3,5-naphthalene-trisulphonic acid, hexasodium salt] | – | – | P2X receptors 3 ([6]; Table 8, antagonists): + (+: inhibitory concentration >300 nM); inhibition of EV71 replication (statement in words) [5]: can also inhibit EV71 replication; Inhibition of EV71 replication [5]: + (+: inhibitory concentration >300 nM); P2X receptors 1 [3]: ++ (key: −: no activity; +: inhibitory concentration >300 nM; ++: inhibitory concentration = 10~300 nM; +++: inhibitory concentration <10 nM); P2X receptors 2 ([4]; Table 8, antagonists): + (+: inhibitory concentration >300 nM) |
| O=C(Nc1cccc(C(=O)Nc2cc(C(=O)Nc3ccc(S(=O)(=O)O)c4cc(S(=O)(=O)O)cc(S(=O)(=O)O)c34)ccc2F)c1)Nc1cccc(C(=O)Nc2cc(C(=O)Nc3ccc(S(=O)(=O)O)c4cc(S(=O)(=O)O)cc(S(=O)(=O)O)c34)ccc2F)c1 [NF157, 8,8′-[Carbonylbis[imino-3,1-phenylenecarbonylimino(4-fluoro-3,1-phenylene)carbonylimino]]] | – | – | inhibition of EV71 replication (statement in words) [5]: can also inhibit EV71 replication |
| O=C(Nc1cc(C(=O)Nc2ccc(S(=O)(=O)[O-])cc2)cc(C(=O)Nc2ccc(S(=O)(=O)[O-])cc2)c1)Nc1cc(C(=O)Nc2ccc(S(=O)(=O)[O-])cc2)cc(C(=O)Nc2ccc(S(=O)(=O)[O-])cc2)c1.[Na+].[Na+].[Na+].[Na+] [NF 110] | NO | – | P2X receptors 3 ([6]; Table 9, antagonists): ✓ ✓ (✓ ✓ activating concentration 10 nM-300 nM); P2X receptors 1 ([3]; Table 9, antagonists): ✓ ✓ (✓ ✓ activating concentration 10 nM-300 nM); P2X receptors 2 ([4]; Table 9, antagonists): ✓ (✓ activating concentration >300 nM) |
| Cc1nc(N=Nc2cc(S(=O)(=O)[O-])c3cc([N+](=O)[O-])cc(S(=O)(=O)[O-])c3c2)c(COP(=O)([O-])[O-])c(C=O)c1O.[Na+].[Na+].[Na+].[Na+] [PPNDS, Pyridoxal-5′-phosphate-6-(2′-naphthylazo-6′-nitro-4′,8′-disulfonate) tetrasodium salt] | – | – | inhibition of EV71 replication (statement in words) [5]: can also inhibit EV71 replication; Inhibition of EV71 replication [5]: ++ (++: inhibitory concentration = 10~300 nM); P2X receptors 1 ([3]; Table 8, antagonists): ++ (++: inhibitory concentration = 10~300 nM) |
| O=C(N[C@H](Cc1cscn1)C(=O)N[C@@H](CC1CCCCC1)[C@@H](O)[C@@H](O)C1CC1)c1nc2ccccc2[nH]1 [Ro 0437626] | NO | – | P2X receptors 1 ([3]; Table 9, antagonists): ✓ (✓ activating concentration >300 nM) |
| Cc1nc(N=Nc2cc(S(=O)(=O)O)ccc2S(=O)(=O)O)c(COP(=O)(O)O)c(C=O)c1O [iso-PPADS, pyridoxal-phosphate-6-azophenyl-2′,5′-disulphonic acid] | – | – | P2X receptors 3 ([6]; Table 8, antagonists): ++ (++: inhibitory concentration = 10~300 nM); inhibition of EV71 replication (statement in words) [5]: can also inhibit EV71 replication; Inhibition of EV71 replication [5]: + (+: inhibitory concentration >300 nM); P2X receptors 1 ([3]; Table 8, antagonists): ++ (++: inhibitory concentration = 10~300 nM); P2X receptors 2 ([4]; Table 8, antagonists): ++ (++: inhibitory concentration = 10~300 nM) |
| Nc1ncnc2c1ncn2[C@@H](C=O)O[C@@H](C=O)COP(=O)(O)OP(=O)(O)OP(=O)(O)O [oATP] | NO | ✓ ✓ (✓ ✓ activating concentration 10 nM-300 nM) | – |
| LVVYPWT [Spinorphin] | NO | – | P2X receptors 3 ([6]; Table 9, antagonists): ✓ ✓ ✓ (✓ ✓ ✓ activating concentration <10 nM) |
